Positions of bridges follow the written chain, without caps; N, C: chain ends. Non-standard residues stand in square brackets, D forms with d. Residues, ends and D or L forms follow the SMILES beside them. ξ: configuration not given here. *: point of attachment. Bip = N[C@@H](Cc1ccc(-c2ccccc2)cc1)C(=O)O; NMeF = CN[C@@H](Cc1ccccc1)C(=O)O; 4Pal = N[C@@H](Cc1ccncc1)C(=O)O; Cha = N[C@@H](CC1CCCCC1)C(=O)O; Thr(3ξ) = CC(O)[C@H](N)C(=O)O; Carboxymethyl = O=C(O)C*; NMeA = CN[C@@H](C)C(=O)O; Orn = NCCC[C@H](N)C(=O)O; dNMeA = CN[C@H](C)C(=O)O; Dab = NCC[C@H](N)C(=O)O; Dap = NC[C@H](N)C(=O)O; ξV = CC(C)C(N)C(=O)O; ξP = O=C(O)C1CCCN1; Sar = CNCC(=O)O
Molecular target: T1, human PD-1 (Jurkat-PD-1 cells) / PE-labeled human PD-L1-Ig (Homo sapiens, UniProt Q15116)
T1 construct: expressed in transfected cells; host or cells: Jurkat cell line over-expressing human PD-1
Test: Jurkat-PD-1 Cell Binding High-Content Screening Assay (CBA); Jurkat hPD1-PDL1 assay
Conditions: Jurkat cell line over-expressing human PD-1; PE-labeled PD-L1-Ig 20 nM final; compound incubated 2 hours at 37° C.; read-out: Jurkat HPD1-PDL1 IC50
Description: The ability of the compounds of formula (I) to bind to PD-1 was investigated using a Jurkat-PD-1 Cell Binding High-Content Screening Assay.
Jurkat-PD-1 Cell Binding High-Content Screening Assay (CBA)
Phycoerythrin (PE) was covalently linked to the Ig epitope tag of human PD-L1-Ig and fluorescently-labeled PD-L1-Ig was used for binding studies with a Jurkat cell line over-expressing human PD-1 (Jurkat-PD-1). Briefly, 8×10^3 Jurkat-hPD-1 cells were seeded into 384 well plates in 20 μL of DMEM supplemented with 10% fetal calf serum. 100 nL of compound was added to cells followed by incubation at 37° C. for 2 hours. Then, 5 μL of PE-labeled PD-L1-Ig (20 nM final), diluted in DMEM supplemented with 10% fetal calf serum. […] Data was collected and processed using a Cell Insight NXT High Content Imager and associated software.

T1 sequence (Q15116 25-288): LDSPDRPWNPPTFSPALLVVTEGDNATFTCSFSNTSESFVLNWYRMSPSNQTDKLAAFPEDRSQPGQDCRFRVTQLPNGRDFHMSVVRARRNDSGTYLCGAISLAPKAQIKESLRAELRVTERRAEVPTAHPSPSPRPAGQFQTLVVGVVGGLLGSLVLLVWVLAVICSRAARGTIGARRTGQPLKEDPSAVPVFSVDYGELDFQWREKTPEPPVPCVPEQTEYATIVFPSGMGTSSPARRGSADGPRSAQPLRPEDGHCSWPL

SMILES	IC50
CC(C)[C@@H]1NC(=O)[C@H](Cc2c[nH]c3ccccc23)NC(=O)[C@H](CC(=O)O)NC(=O)[C@H](Cc2ccncc2)NC(=O)[C@H](CN)NC(=O)CSC[C@@H](C(=O)NCC(N)=O)NC(=O)[C@H](C(C)O)NC(=O)[C@H](C(C)C)NC(=O)[C@H](CC2CCCCC2)NC(=O)[C@H](CCN)NC(=O)[C@@H](C)N(C)C(=O)[C@H](CCCN)NC(=O)[C@H](CN)NC(=O)[C@H](Cc2ccc(-c3ccccc3)cc2)NC1=O (stereo partly drawn) [Example 1434] ({CH2CO}-[Dap][4Pal]DWV[Bip][Dap][Orn][dNMeA][Dab][Cha]V[Thr(3ξ)]CG-NH2; thioether N-14)	100 nM
CC(C)C[C@@H]1NC(=O)[C@H](CCCNC(=N)N)NC(=O)C2CCCN2C(=O)[C@H](C)N(C)C(=O)[C@H](CCCNC(=N)N)NC(=O)[C@H](Cc2ccc(-c3ccccc3)cc2)NC(=O)[C@H](C(C)C)NC(=O)[C@H](Cc2c[nH]c3ccccc23)NC(=O)[C@H](CC(=O)O)NC(=O)[C@H](Cc2ccc(O)cc2)NC(=O)[C@H](Cc2ccccc2)NC(=O)CSC[C@@H](C(=O)NCC(N)=O)NC(=O)[C@H](CO)NC(=O)[C@H](C(C)C)NC1=O (stereo partly drawn) [Example 1282] ({CH2CO}-FYDWV[Bip]R[NMeA][ξP]RLVSCG-NH2; thioether N-14)	290 nM
CC(C)C1NC(=O)[C@H](Cc2c[nH]c3ccccc23)NC(=O)[C@H](CC(=O)O)NC(=O)[C@H](Cc2ccc(O)cc2)NC(=O)[C@H](CC(N)=O)NC(=O)CSC[C@@H](C(=O)N[C@@H](C)C(N)=O)NC(=O)[C@H]([C@@H](C)O)NC(=O)[C@H](C(C)C)NC(=O)[C@H](CC2CCCCC2)NC(=O)[C@H](CCN)NC(=O)[C@H](Cc2ccccc2)N(C)C(=O)[C@H](CCCN)NC(=O)[C@H](CCC(=O)O)NC(=O)[C@H](Cc2ccc(-c3ccccc3)cc2)NC1=O (stereo partly drawn) [Example 1441] ({CH2CO}-NYDW[ξV][Bip]E[Orn][NMeF][Dab][Cha]VTCA-NH2; thioether N-14)	60 nM
CC(C)C[C@@H]1NC(=O)[C@H](Cc2c[nH]c3ccccc23)NC(=O)[C@H](CC(=O)O)NC(=O)[C@H](Cc2ccc(O)cc2)NC(=O)[C@H](Cc2ccccc2)NC(=O)CSC[C@@H](C(=O)N[C@@H](C)C(N)=O)NC(=O)[C@H](CO)NC(=O)[C@H](C(C)C)NC(=O)[C@H](CC(C)C)NC(=O)[C@H](CC(N)=O)NC(=O)[C@H]2CCCN2C(=O)[C@H](C)N(C)C(=O)[C@H](CCCNC(=N)N)NC(=O)[C@H](Cc2ccc(-c3ccccc3)cc2)NC1=O [Example 1027] ({CH2CO}-FYDWL[Bip]R[NMeA][dP]NLVSCA-NH2; thioether N-14)	50 nM

Further lines, results first:

IC50	SMILES
570 nM	COc1ccc(C[C@@H]2NC(=O)CSC[C@@H](C(=O)NCC(N)=O)NC(=O)[C@H](CO)NC(=O)[C@H](C(C)C)NC(=O)[C@H](CC(C)C)NC(=O)[C@H](CC(N)=O)NC(=O)CN(C)C(=O)[C@H](C)N(C)C(=O)[C@H](C(C)C)NC(=O)[C@H](Cc3ccc(-c4ccccc4)cc3)NC(=O)[C@H](CC(C)C)NC(=O)[C@H](Cc3c[nH]c4ccccc34)NC(=O)[C@H](CC(=O)O)NC(=O)[C@H](Cc3ccc(O)cc3)NC2=O)cc1 [Example 1138] ({CH2CO}-Y(Me)YDWL[Bip]V[NMeA][Sar]NLVSCG-NH2; thioether N-14)
120 nM	CC(C)C[C@@H]1NC(=O)[C@H](Cc2c[nH]c3ccccc23)NC(=O)[C@H](CC(=O)O)NC(=O)[C@H](Cc2ccc(OCC(=O)O)cc2)NC(=O)[C@H](Cc2cnc[nH]2)NC(=O)CSC[C@@H](C(=O)N[C@@H](C)C(N)=O)NC(=O)[C@H](CO)NC(=O)[C@H](C(C)C)NC(=O)[C@H](CC(C)C)NC(=O)[C@H](CC(N)=O)NC(=O)[C@H]2CCCN2C(=O)[C@H](C)N(C)C(=O)[C@H](C(C)C)NC(=O)[C@H](Cc2ccc(-c3ccccc3)cc2)NC1=O [Example 1052] ({CH2CO}-HY(Carboxymethyl)DWL[Bip]V[NMeA][dP]NLVSCA-NH2; thioether N-14)

Reference: patent US20240360178A1, “MACROCYCLIC IMMUNOMODULATORS” (Bristol-Myers Squibb Company, priority 2021, published 2024)
